Measured values from patent US20170223995A1, “Sweetener Blend Compositions” (The Coca-Cola Company, priority 2011, published 2017).

Experiment: Multi-sip and swallow taste test by a trained taste tester
Format: in vivo
Description: Multi-Sip and Swallow Test Method
A sip (approximately 2.0-5.0 mL) of a sample was swallowed by a trained taste tester. After allowing a 15-25 second interval to pass, a second sip of the sample is tasted and swallowed. This process is repeated as needed to determine the taste properties. The taste properties are then recorded by the trained taste tester. Preferably no more than ten samples are tested per day to avoid taste fatigue. Each sample was taken at least 1.5 hours following eating or drinking.

[1] = 500 ppm in carbon-treated water
[2] = 100,000 ppm in carbon-treated water
[3] = as restated in the Discussion, out of highest five

Molecule | bitterness intensity [1] | sugar-like tasting quality [1] | sweetness intensity [1] | sweetness linger [1] | sweetness onset [1] | bitterness intensity [2] | sugar-like tasting quality [2] | sweetness intensity [2] | sweetness linger [2] | sweetness linger [3] | sweetness (in words, compared with rebaudioside A) (Discussion) | sugar-like tasting quality (in words, comparison) (text remarks, comparison with rebaudioside A)
C=C1C[C@@]23CC[C@H]4[C@@](C)(CCC[C@@]4(C)C(=O)O)[C@@H]2CC[C@]1(O[C@@H]1O[C@H](CO)[C@@H](O)[C@H](O)[C@H]1O[C@@H]1O[C@H](CO)[C@@H](O)[C@H](O)[C@H]1O)C3 [steviolbioside] | no bitterness | 2 out of 5 | 5 out of 10 | 3 out of 5 | slow sweetness onset |  |  |  |  |  |  | 
OC[C@H]1O[C@@](CO)(O[C@H]2O[C@H](CO)[C@@H](O)[C@H](O)[C@H]2O)[C@@H](O)[C@@H]1O [sugar] |  |  |  |  |  | 0 | 5 | 10 | 0 |  |  | 
C=C1C[C@@]23CC[C@H]4[C@@](C)(CCC[C@@]4(C)C(=O)O[C@@H]4O[C@H](CO)[C@@H](O)[C@H](O)[C@H]4O)[C@@H]2CC[C@]1(O[C@@H]1O[C@H](CO)[C@@H](O)[C@H](O)[C@H]1O[C@@H]1O[C@H](CO)[C@@H](O)[C@H](O)[C@H]1O)C3 [stevioside] | 5 out of 5 | 0 out of 5 | 5 out of 10 | 5 out of 5 |  |  |  |  |  |  |  | 
rebaudioside B | 0 out of 5 | 3 out of 5 | 2 out of 10 | 3 out of 5 |  |  |  |  |  | 3 |  | 
C=C1C[C@@]23CC[C@H]4[C@@](C)(CCC[C@@]4(C)C(=O)O[C@@H]4O[C@H](CO)[C@@H](O)[C@H](O)[C@H]4O)[C@@H]2CC[C@]1(O[C@@H]1O[C@H](CO)[C@@H](O)[C@H](O[C@@H]2O[C@H](CO)[C@@H](O)[C@H](O)[C@H]2O)[C@H]1O[C@@H]1O[C@H](CO)[C@@H](O)[C@H](O)[C@H]1O)C3 [rebaudioside A] | 4 out of 5 | 0 out of 5 | 5 out of 10 | 5 out of 5 |  |  |  |  |  | 5 |  | 
C=C1C[C@@]23CC[C@H]4[C@@](C)(CCC[C@@]4(C)C(=O)O[C@@H]4O[C@H](CO)[C@@H](O)[C@H](O)[C@H]4O[C@@H]4O[C@H](CO)[C@@H](O)[C@H](O)[C@H]4O)[C@@H]2CC[C@]1(O[C@@H]1O[C@H](CO)[C@@H](O)[C@H](O[C@@H]2O[C@H](CO)[C@@H](O)[C@H](O)[C@H]2O)[C@H]1O[C@@H]1O[C@H](CO)[C@@H](O)[C@H](O)[C@H]1O)C3 [rebaudioside D] |  |  |  |  |  |  |  |  |  | 5 | less sweetness | slightly more sugar-like taste quality
